Experimental data reported in ChEMBL document CHEMBL5608215, “Development of amphipathic derivatives of thymol and carvacrol as potent broad-spectrum antibacterial agents” (Eur J Med Chem, 2024).
≈ marks a conversion by molar mass, not a printed value. Calls of active or inactive are those of the source. The calls are words filed in the database; no cut-off is given here.

What was measured:
Staphylococcus aureus [1] = experiment: Bactericidal activity against Staphylococcus aureus ATCC29213 at MIC incubated for 24 hrs by time-kill assay; type: functional, organism-based
Staphylococcus aureus [2] = experiment: Bactericidal activity against Staphylococcus aureus ATCC29213 incubated upto 24 hrs by time-kill assay; type: functional, organism-based
Escherichia coli [3] = experiment: Bactericidal activity against Escherichia coli ATCC25922 at 8 times MIC incubated for 12 hrs by time-kill assay relative to control; type: functional
Staphylococcus aureus [4] = experiment: Antibacterial activity against methicillin-resistant Staphylococcus aureus 21-5 by CLSI based serial dilution method; type: functional
Staphylococcus aureus [5] = experiment: Inhibition of antibiotic-resistance in Staphylococcus aureus ATCC29213 at 0.5 times of MIC incubated for 20 days; type: functional; details: time 20.0 day
Enterococcus faecalis = experiment: Antibacterial activity against Enterococcus faecalis ATCC29212 by CLSI based serial dilution method; type: functional
Escherichia coli [6] = experiment: Bactericidal activity against Escherichia coli ATCC25922 incubated upto 24 hrs by time-kill assay; type: functional, organism-based
Staphylococcus aureus [7] = experiment: Antibacterial activity against Staphylococcus aureus ATCC29213 by CLSI based serial dilution method; type: functional
Pseudomonas aeruginosa [8] = experiment: Antibacterial activity against Pseudomonas aeruginosa ATCC27853 by CLSI based serial dilution method; type: functional
Enterococcus = experiment: Antibacterial activity against vancomycin-resistant Enterococcus ATCC51299 by CLSI based serial dilution method; type: functional
Escherichia coli [9] = experiment: Bactericidal activity against Escherichia coli ATCC25922 assessed as inhibition of bacterial regrowth at 8 times MIC incubated for 24 hrs by time-kill assay; type: functional, organism-based
Escherichia coli [10] = experiment: Antibacterial activity against Escherichia coli ATCC25922 by CLSI based serial dilution method; type: functional
Staphylococcus aureus [11] = experiment: Bactericidal activity against Staphylococcus aureus ATCC29213 at 8 times MIC incubated for 24 hrs by time-kill assay relative to control; type: functional
Escherichia coli [12] = experiment: Bactericidal activity against Escherichia coli ATCC25922 at MIC incubated for 24 hrs by time-kill assay; type: functional, organism-based
Staphylococcus aureus [13] = experiment: Bactericidal activity against Staphylococcus aureus ATCC29213 assessed as log reduction in bacterial growth at 8 times MIC incubated for 24 hrs by time-kill assay; type: functional
Pseudomonas aeruginosa [14] = experiment: Anti-biofilm activity against Pseudomonas aeruginosa ATCC27853 assessed as biofilm formation rate at 8 times MIC incubated for 48 hrs by crystal violet staining based analysis relative to control; type: functional
Staphylococcus aureus [15] = experiment: Antibacterial activity against Staphylococcus aureus ATCC29213 infected in mouse model assessed as normalization of skin cell morphology at 5 mg/kg, sc measured after 24 hrs by H and E staining based analysis; type: functional, organism-based
Staphylococcus aureus [16] = experiment: Antibacterial activity against Staphylococcus aureus ATCC29213 infected in mouse model assessed as bacterial load in abscesses at 5 mg/kg, sc measured after 24 hrs; type: functional
Staphylococcus aureus [17] = experiment: Antibacterial activity against Staphylococcus aureus ATCC29213 infected in mouse model assessed as reduction in inflammatory factors in skin at 5 mg/kg, sc measured after 24 hrs by H and E staining based analysis; type: functional, organism-based

SMILES | Activity (Staphylococcus aureus [1]) | Activity (Staphylococcus aureus [2]) | Activity (Escherichia coli [3]) [%] | MIC (Staphylococcus aureus [4]) [µg/mL] | inhibition (Staphylococcus aureus [5]) | MIC (Enterococcus faecalis) [µg/mL] | Activity (Escherichia coli [6]) | MIC (Staphylococcus aureus [7]) [µg/mL] | MIC (Pseudomonas aeruginosa [8]) [µg/mL] | MIC (Enterococcus) [µg/mL] | inhibition (Escherichia coli [9]) | MIC (Escherichia coli [10]) [µg/mL] | Activity (Staphylococcus aureus [11]) [%] | Activity (Escherichia coli [12]) | Activity (Staphylococcus aureus [13]) [log10CFU/ml] | Activity (Pseudomonas aeruginosa [14]) [%] | Activity (Staphylococcus aureus [15]) | Activity (Staphylococcus aureus [16]) [log10CFU/g] | Activity (Staphylococcus aureus [17])
CCCCCCN(CCCCCC)C(=O)C[N+](C)(C)CCCCOc1cc(C(C)C)ccc1C.[Br-] | inactive | Dose-Dependent Effect | 100 | 8 | Active | 0.125 | Dose-Dependent Effect | 0.5 | 8 | 0.5 | Active | 4 | >99.9 | inactive | >3 | 55.3 |  |  | 
CN[C@H](CC(C)C)C(=O)N[C@H]1C(=O)N[C@@H](CC(N)=O)C(=O)N[C@H]2C(=O)N[C@H]3C(=O)N[C@H](C(=O)N[C@H](C(=O)O)c4cc(O)cc(O)c4-c4cc3ccc4O)[C@H](O)c3ccc(c(Cl)c3)Oc3cc2cc(c3O[C@@H]2O[C@H](CO)[C@@H](O)[C@H](O)[C@H]2O[C@H]2C[C@](C)(N)[C@H](O)[C@H](C)O2)Oc2ccc(cc2Cl)[C@H]1O [VANCOMYCIN] |  |  |  |  |  | 2 (≈ 1.38 µM) |  |  | > 128 | > 128 |  | 128 (≈ 88.3 µM) |  |  |  |  | Active | 3.2 | Active
